Holding throughout (assay type): functional
In assay [1] the test system is Staphylococcus epidermidis. In words: Antimicrobial activity against Staphylococcus epidermidis ATCC 12228.
For another assay, the system named is Bacillus cereus. The assay can be described thus: Antimicrobial activity against Bacillus cereus ATCC 10702.
The test system of the next assay is Escherichia coli. In words: Antimicrobial activity against Escherichia coli ATCC 25922.
The subject of the next assay is Caco-2. The assay can be described thus: Cytotoxicity against human Caco-2 cells.
The test system of the next assay is KB. In words: Cytotoxicity against human KB cells.
A further assay concerns Biomphalaria glabrata. The assay can be described thus: Antimolluscicidal activity against Biomphalaria glabrata.

≈ marks a conversion by molar mass, not a printed value.

On to `O=C(N[C@H](CO)[C@H](O)c1ccc([N+](=O)[O-])cc1)C(Cl)Cl` [CHLORAMPHENICOL], for which the MIC worked out at 4 µg/mL (≈ 12.4 µM) in assay [1] and 8 µg/mL (≈ 24.8 µM) in the assay with Bacillus cereus.

With `C[C@@H]1CC[C@@]2(C)[C@@H](CC[C@]3(C)[C@@H]2CC[C@@]3(C)CO)[C@]1(C)Cc1cc(C(=O)O)ccc1O` [COMNASTIN A], the MIC in the assay on Escherichia coli was 128 µg/mL (≈ 299 µM); in assay [1] it was 16 µg/mL (≈ 37.3 µM); against Bacillus cereus, 32 µg/mL (≈ 74.7 µM).

`C[C@@H]1CC[C@@]2(C)[C@@H](CC[C@]3(C)[C@@H]2CC[C@@]3(C)C=O)[C@]1(C)Cc1cc(C(=O)O)ccc1O` [COMNASTIN B]: the MIC in the assay on Escherichia coli was determined as 128 µg/mL (≈ 300 µM); in assay [1], 16 µg/mL (≈ 37.5 µM); against Bacillus cereus, 32 µg/mL (≈ 75 µM); against Caco-2, 0.18 µg/mL (≈ 0.422 µM); against KB, 0.4 µg/mL (≈ 0.938 µM); against Biomphalaria glabrata, 20 µg/mL (≈ 46.9 µM).

With `C[C@@H]1CC[C@@]2(C)[C@@H](CC[C@]3(C)[C@@H]2CC[C@@]3(C)C(=O)O)[C@]1(C)Cc1cc(C(=O)O)ccc1O` [COMNASTIN C], the results for the MIC (with Escherichia coli; in assay [1]; against Bacillus cereus) were 64 µg/mL (≈ 145 µM), 16 µg/mL (≈ 36.2 µM) and 32 µg/mL (≈ 72.3 µM), respectively.

In the case of `COC(OC)[C@]1(C)CC[C@@H]2[C@@]3(C)CC[C@@H](C)[C@@](C)(Cc4cc(C(=O)O)ccc4O)[C@@H]3CC[C@]21C` [COMNASTIN D], the results for the MIC (against Escherichia coli; in assay [1]; against Bacillus cereus) were 128 µg/mL (≈ 271 µM), 32 µg/mL (≈ 67.7 µM) and 16 µg/mL (≈ 33.9 µM), respectively.

For `CC(=O)[C@@H]1CC[C@@H]2[C@@]3(C)CC[C@@H](C)[C@@](C)(Cc4cc(C(=O)O)ccc4O)[C@@H]3CC[C@]21C` [COMNASTIN E], the MIC was found to be 4 µg/mL (≈ 9.38 µM) in assay [1] and 128 µg/mL (≈ 300 µM) against Bacillus cereus.

In the case of `COc1cc([C@@H]2c3cc4c(cc3[C@H](O)[C@H]3COC(=O)[C@H]23)OCO4)cc(OC)c1OC` [PODOFILOX], the MIC was found to be 0.02 µg/mL (≈ 0.0483 µM) in the assay with Caco-2 and 0.01 µg/mL (≈ 0.0241 µM) against KB.

Turning to `CN(C)[C@@H]1C(O)=C(C(N)=O)C(=O)[C@@]2(O)C(O)=C3C(=O)c4c(O)cccc4[C@@](C)(O)[C@H]3C[C@@H]12` [TETRACYCLINE], the MIC against Escherichia coli stood at 64 µg/mL (≈ 144 µM).
